Experimental data reported in publication PMC6550177, “Statuses of food-derived glutathione in intestine, blood, and liver of rat” (NPJ Science of Food, 2018).
Entries after “also recorded” stand apart in the source; their conditions may differ.

Experiments:
[1] = Food-derived glutathione in washed intestine and liver after oral gavage of 13C-labeled compound (LC-MS/MS); settings: rat
Experimental: Rats were acclimatized for a week, divided into four groups, and were given 1 mL of glutathione-1-^13C (50 mg/kg body weight) or NAC-1-^13C (50 mg/kg body weight) solutions using an oral gavage.
Portions of the thoroughly washed intestines and livers were homogenized in the same weight of PBS using a BioMasher (Nippi, Tokyo, Japan). The obtained homogenates were then mixed with the same volumes of 10% (v/v) TCA-4% (v/v) 2-mercaptoethanol and allowed to stand for 30 min at 25°C. The supernatant was collected and used to determine the total amounts of glutathione and related peptides. Another set of intestines and livers were homogenized in the same volume of PBS containing 20 mM NEM and then allowed to stand for 10 min at 25 °C. The homogenate were further diluted with another three fold volumes of PBS without NEM, and mixed with the same volume of 10% (v/v) TCA. […] The precipitate was washed with the same weight of 10% TCA three times, and the protein-bound form of glutathione was extracted with the same weight of 10% TCA-4% 2-mercaptoethanol as described above.
The 5% TCA–2% 2-mercaptoethanol extracts (50 μL) were dried under vacuum to remove excess amounts of 2-mercaptoethanol; thereafter, 20 μL of an alkaline solution was added to neutralize the extracts and they were again dried under vacuum.
With NEM, glutathione disulfide was conjugated with two molecules of AccQs, and the resultant AccQ derivative of glutathione disulfide was subjected to the LC-MS/MS as described above.

[2] = rat
Experimental: (§1) All animals were treated and cared in accordance with the National Institutes of Health’s guidelines for the use of experimental animals. All experimental procedures were approved by the Animal Care Committee of Kyoto Prefectural University (No. KPU260400-260421). Seven-week-old Wister rats (body weight 200–220 g) were housed in a 12-h light-dark cycle and allowed free access to standard rat chow and water. […] The plasma was prepared by centrifugation at 800×g for 10 min at 4 °C. The liver and small intestines were taken from the rats. The intestines were flushed with about 40 mL of cold PBS to remove its contents. The blood in the liver was purged by infusing cold PBS into the portal vein. Samples were stored at −80 °C until use.
(§2) The plasma (100 μL) was mixed with three fold volumes of ethanol. The supernatant and precipitate obtained were harvested by centrifugation at 14,200×g at 4 °C for 10 min. The supernatant was referred to as the low-molecular-weight fraction of the plasma. Aliquots of the low-molecular-weight fraction (300 μL each) were dried under vacuum, and processed using two methods. Some dried aliquots were treated with 50 μL of 5% TCA-2% 2-mercaptoethanol solution for 30 min and used in determining the total glutathione and related peptides. Free and bound-form glutathione were bound to 2-mercaptoethnol.[6] Other dried aliquots of the fraction (300 μL) were treated with 50 μL of 20 mM NEM in PBS for 10 min. Only free glutathione bound to NEM, as NEM has no reducing activity. The reaction was terminated by adding 50 μL of 5% TCA solution. The NEM-treated fraction was used in determination of the reduced-form of glutathione and glutathione disulfide.
(§3) The ethanol precipitate of the plasma was further washed with 200 μL of 75% (v/v) ethanol twice. The residue was collected by centrifugation at 14,200×g at 4 °C. Protein-bound glutathione and related peptides were liberated from the residue by extracting with 100 μL of 5% TCA-2% 2-mercaptoethanol with occasional agitation for 30 min. The supernatant obtained after centrifugation was used to determine the protein-bound form of glutathione and related peptides.[6]
(§4) The 5% TCA–2% 2-mercaptoethanol extracts (50 μL) were dried under vacuum to remove excess amounts of 2-mercaptoethanol; thereafter, 20 μL of an alkaline solution was added to neutralize the extracts and they were again dried under vacuum. The residues were mixed with 20 μL of 20 mM HCl, 60 μL of the sodium borate buffer provided with the AccQ Tag Ultra Derivatization Kit, and 20 μL of 0.3% (w/v) AccQ acetonitrile solution and heated at 50 °C for 10 min to obtain their AccQ derivatives. Then, the reaction mixtures were diluted with adequate amounts of 5 mM sodium phosphate buffer (pH 7.4) containing 10% (v/v) acetonitrile and filtered using a 0.45-μm filter (Cosmonice filter W, Nacalai Tesque). The filtrates were subjected to LC-MS/MS using a 3200 QTRAP system (AB SCIEX, Framingham, MA) as previously described.[6]
(§5) Without 2-mercaptoethanol, the sulfhydryl group of glutathione was conjugated with NEM in PBS. The NEM-glutathione derivative was directly subjected to LC-MS/MS to determine the reduced-form of glutathione. With NEM, glutathione disulfide was conjugated with two molecules of AccQs, and the resultant AccQ derivative of glutathione disulfide was subjected to the LC-MS/MS as described above. Reduced-form glutathione (2 nmol) was added to the ethanol-soluble fraction of plasma from portal blood.

[3] = test system: peroxisome proliferator-activated receptor gamma coactivator 1-alpha (PGC-1α); settings: cited from earlier work
[4] = mice, 12 weeks supplementation, 50 mg/kg body weight, preliminary experiment
in vivo = settings: Wister, rat, po, 50 mg/kg, 60 min after ingestion
Experimental: as §1, §2, §3, §4, §5

[5] = oral administration, vs placebo controls; cited from earlier work
[6] = oral administration, vs placebo controls; cited from earlier work; remark: listed apart in the source
[7] = patients with non-alcoholic fatty liver disease, oral administration; cited from earlier work
[8] = humans, dietary supplementation; cited from earlier work
[9] = animals, oral administration; cited from earlier work

## N[C@@H](CCC(=O)N[C@@H](CS)[13C](=O)NCC(=O)O)C(=O)O [glutathione-1-^13C, Glutathione-1-^13C]
[1]; in vivo, po
  Food-derived Cys-Gly and γ-Glu-Cys in intestines and liver: negligible amounts
[1]; in vivo, po, 50 mg/kg
  Food-derived glutathione content in intestine: approximately 60 μmol/kg
  Food-derived glutathione content in liver: ~300 µmol/kg
[2]; in vivo, po
  Food-derived Cys-Gly and γ-Glu-Cys in plasma: significant amounts
[2]; in vivo, po, 50 mg/kg
  Status (form) of food-derived glutathione in blood plasma: conjugated with proteins and low-molecular-weight thiol compounds

## vitamin E
[3]
  Exercise-induced increase of PGC-1α: suppress

## N[C@@H](CCC(=O)N[C@@H](CS)C(=O)NCC(=O)O)C(=O)O [glutathione, γ-L-glutamyl-L-cysteinyl-glycine]
[1]
  Food-derived Cys-Gly, γ-Glu-Cys and glutathione disulfide in the liver without blood: negligible amounts
[1]; 120 min after administration at 50 mg/kg
  Food-derived glutathione as share of total glutathione in the liver: approximately 5%
[2]; after oral glutathione
  Food-derived glutathione in protein-bound fraction, plasma from portal vein vs inferior vena cava: insignificantly different
[2]; after oral glutathione, LC-MS/MS multi-reaction monitoring
  Reduced-form glutathione and glutathione disulfide in low-molecular-weight fraction of plasma from portal vein: no reduced-form glutathione and glutathione disulfide were detected
[4]
  Liver glutathione levels compared to controls: did not significantly increase
[3]; previous animal experiment
  PGC-1α / mitochondrial biogenesis: enhances mitochondrial biogenesis by increasing
In vivo; Food-derived glutathione level in low-molecular-weight fraction of blood from hepatic portal vein
  concentration at 60 min: ~400 nM
In vivo; Food-derived glutathione level in low-molecular-weight fraction of blood from inferior vena cava
  concentration at 60 min: < 100 nM
[5]
  Melanin indices on the skin: reduce melanin indices on the skin
[6]
  Exercise-induced fatigue: reduce
[7]
  Plasma alanine aminotransferase and free fatty acid levels: significantly reduce
[8]
  Protein-bound glutathione in the blood plasma: increase
[9]
  Liver glutathione level: increase the liver glutathione level

## CC(=O)N[C@@H](CS)[13C](=O)O [NAC, N-acetylcysteine-1-^13C]
[1]; oral 50 mg/kg
  Food-derived glutathione in intestines and liver after ingestion of NAC: present
[2]; oral 50 mg/kg, within 120 min, 50 mg/kg
  NAC-derived glutathione (and fragment peptides) in blood plasma: not detected; also recorded: no significant amounts

## O=C1O[C@H]([C@@H](O)CO)C(O)=C1O [vitamin C]
[3]
  Exercise-induced increase of PGC-1α: suppress
